# Test results published in patent US7718681B2, “5-(1,3-Diaryl-1H-pyrazol-4-ylmethylene)-thiazolidine,2,4-dione derivatives useful as anticancer agent” (Korea Research Institute of Chemical Technology, priority 2005, dated 2010).
# Target: T1, CDC25B (Homo sapiens, UniProt P30305)
# T1 construct: Catalytic domain of CDC25B (aa 378-566) was expressed and produced in E. coli into a GST fusion protein; GST; made in house; host or cells: E. coli
# T1 sequence (P30305 378-566 isoform P30305-2): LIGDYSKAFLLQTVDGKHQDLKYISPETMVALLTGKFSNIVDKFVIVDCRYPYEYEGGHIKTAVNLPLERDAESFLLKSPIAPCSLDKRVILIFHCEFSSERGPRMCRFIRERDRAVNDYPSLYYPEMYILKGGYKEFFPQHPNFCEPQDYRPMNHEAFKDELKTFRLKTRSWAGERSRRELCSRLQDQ
# Experiment: CDC25B enzyme assay
# Assay type: biochemical
# Settings: catalytic domain of CDC25B (aa 378-566) GST fusion, 20 μm FDP, 1 hour at room temperature, fluorescence
# Procedure: Catalytic domain of CDC25B (aa 378-566) was expressed and produced in E. coli into a GST fusion protein, which was used as zymogen. Enzyme assay was carried out on a 96-well plate, with the final reaction volume per well adjusted to 200 μL. 170 μL of a buffer solution (30 mM Tris buffer, pH 8.5, 75 mM NaCl, 0.67 mM EDTA, 1 mM DTT), 20 μL (0.2 μg) of CDC25B enzyme and 10 μL of the test compound dissolved in DMSO were added, so that the final concentration became 1 μg/mL CDC25B and 20 μm FDP. Measurement was made after culturing at room temperature for 1 hour. FDP and DTT were added to the buffer solution just before assay, so that a fresh status could be maintained. After 1 hour of culturing, fluorescence resultant from the enzymatic reaction was measured at 485 nm (excitation) and 538 nm (emission).
# The screened compound was treated to a final concentration of 1, 2, 5 and 10 μm to obtain the % inhibition value. If the inhibitory effect was low (less than 50% at […]), the concentration of the compound was increased to 20 μm and the % inhibition value and the IC50 value were obtained.
row,SMILES,IC50 [nM]
1,O=C1NC(=O)C(=Cc2cn(-c3ccccc3)nc2-c2cccc(Br)c2)S1 [Compound 3],9450
2,O=C1NC(=O)/C(=C/c2cn(-c3ccccc3)nc2-c2ccc(OC(F)F)c(OCC3CC3)c2)S1 [Compound 52],2830
3,C=CCOc1ccc(-c2nn(-c3ccccc3)cc2/C=C2\SC(=O)NC2=O)cc1Br [Compound 88],2210
4,O=C1NC(=O)/C(=C/c2cn(-c3ccccc3)nc2-c2cc(OCc3ccccc3)cc(OCc3ccccc3)c2)S1 [Compound 62],230
5,CCCOc1c(Cl)cccc1-c1nn(-c2ccccc2)cc1/C=C1\SC(=O)NC1=O [Compound 70],4050
6,O=C1NC(=O)/C(=C/c2cn(-c3ccc([N+](=O)[O-])cc3)nc2-c2cc(OCc3ccccc3)cc(OCc3ccccc3)c2)S1 [Compound 65],210
7,O=C1NC(=O)/C(=C/c2cn(-c3ccccc3)nc2-c2cc(OCC3CC3)cc(OCC3CC3)c2)S1 [Compound 35],1520
8,CCCOc1cc(OCCC)cc(-c2nn(-c3ccccc3)cc2/C=C2\SC(=O)NC2=O)c1 [Compound 25],1860
9,"O=C1NC(=O)/C(=C/c2cn(-c3ccccc3)nc2-c2cccc(C(F)(F)F)c2)S1 [Compound 16, 5-[3-(3-trifluoromethyl)-1-phenyl-1H-pyrazol-4-ylmethylene]-thiazolidine-2,4-dione]",230
10,"O=C1NC(=O)C(=Cc2cn(-c3ccccc3)nc2-c2cc(F)cc(F)c2)S1 [Compound 58, 5-[3-(3,5-difluoro-phenyl)-1-phenyl-1H-pyrazol-4-ylmethylene]-thiazolidine-2,4-dione]",5790
11,CCOc1c(Cl)cccc1-c1nn(-c2ccccc2)cc1/C=C1\SC(=O)NC1=O [Compound 67],3410
12,CCCOc1ccc(-c2nn(-c3ccccc3)cc2/C=C2\SC(=O)NC2=O)cc1Br [Compound 82],2810
13,O=C1NC(=O)/C(=C/c2cn(-c3ccccc3)nc2-c2ccc(OCC3CC3)c(Br)c2)S1 [Compound 94],1630

# More lines, now with the values ahead:
row,IC50 [nM],SMILES
1,7140,C#CCN1C(=O)S/C(=C\c2cn(-c3ccccc3)nc2-c2cc(Br)c(OCC=C)c(Br)c2)C1=O [Compound 169]
2,9250,CCCN1C(=O)S/C(=C\c2cn(-c3ccccc3)nc2-c2ccc(OCC)c(I)c2)C1=O [Compound 118]
3,1360,CCOc1c(Br)cc(-c2nn(-c3ccccc3)cc2/C=C2\SC(=O)N(CC)C2=O)cc1Br [Compound 153]
4,1090,CCCOc1c(C(C)C)cc(-c2nn(-c3ccccc3)cc2/C=C2\SC(=O)NC2=O)cc1C(C)C [Compound 190]
5,1500,CCCOc1c(Br)cc(-c2nn(-c3ccccc3)cc2/C=C2\SC(=O)NC2=O)cc1Br [Compound 163]
6,2060,COc1ccc(-c2nn(-c3ccccc3)cc2/C=C2\SC(=O)NC2=O)cc1C(C)C [Compound 136]
7,3660,COc1c(C(C)C)cc(-c2nn(-c3ccccc3)cc2/C=C2\SC(=O)NC2=O)cc1C(C)C [Compound 184]
8,2600,CCOc1ccc(-c2nn(-c3ccccc3)cc2C=C2SC(=O)NC2=O)cc1I [Compound 121]
9,3990,CC(C)(C)c1cc(-c2nn(-c3ccccc3)cc2/C=C2\SC(=O)NC2=O)cc(C(C)(C)C)c1O [Compound 192]
10,1840,COc1c(Br)cc(-c2nn(-c3ccccc3)cc2/C=C2\SC(=O)NC2=O)cc1Br [Compound 145]
11,3600,C=CCOc1ccc(-c2nn(-c3ccccc3)cc2/C=C2\SC(=O)N(CC=C)C2=O)cc1I [Compound 132]
12,590,CCOc1ccc(-c2nn(-c3ccccc3)cc2/C=C2\SC(=O)N(CC)C2=O)cc1I [Compound 117]
13,2350,CCN1C(=O)S/C(=C\c2cn(-c3ccccc3)nc2-c2cc(Br)c(OCC3CC3)c(Br)c2)C1=O [Compound 173]
14,13600,C=CCN1C(=O)S/C(=C\c2cn(-c3ccccc3)nc2-c2cc(Br)c(OC(F)F)c(Br)c2)C1=O [Compound 182]
15,2240,CCCOc1ccc(-c2nn(-c3ccccc3)cc2/C=C2\SC(=O)NC2=O)cc1C(C)C [Compound 141]
